Measurements from patent US4156000A, “Cyclopenta[b]thiophene derivatives” (Hexachimie, priority 1976, dated 1979).
Structures can show the parent of a compound that is named as a salt.

How the values were obtained:
[1] = system: rear paw which has received the carrageenin; assay: Anti-inflammatory activity: carrageenin-induced rear paw swelling, oral administration; format: in vivo, rats (male SPF, strain OFA); conditions: for inhibition in vivo at 16 mg/kg / inhibition in vivo at 64 mg/kg / inhibition in vivo at 128 mg/kg / inhibition in vivo at 256 mg/kg / inhibition in vivo at 4 mg/kg: Rattus norvegicus, read-out: % of inhibition (reduction of swelling); for inhibition in vivo at 16 mg/kg: 16 mg/kg oral administration; for inhibition in vivo at 128 mg/kg: 128 mg/kg oral administration; for inhibition in vivo at 256 mg/kg: 256 mg/kg oral administration; for inhibition in vivo at 4 mg/kg: 4 mg/kg oral administration
Protocol: Batches of 12 male SPF rats, strain OFA, weighing 120-130 g each, are given the product to be tested by oral administration 2 hours before and 30 minutes before (1/2 dose each time) subcutaneous plantar injection of 0.05 cm^3 of a 1% solution of carrageenin. The volume of the rear paw which has received the carrageenin is measured at regular intervals.

[2] = system: pain reactions (abdominal contortions); assay: Analgesic activity: phenylbenzoquinone-induced pain reactions, oral administration; format: in vivo, mice (male, SPF1, strain OF1); conditions: Mus musculus; for inhibition in vivo at 8 mg/kg: 8 mg/kg oral administration; for inhibition in vivo at 16 mg/kg: 16 mg/kg oral administration; for inhibition in vivo at 32 mg/kg: 32 mg/kg oral administration; for inhibition in vivo at 64 mg/kg: 64 mg/kg oral administration; for inhibition in vivo at 4 mg/kg: 4 mg/kg oral administration; for inhibition in vivo at 256 mg/kg: 256 mg/kg oral administration
Protocol: Batches of 6 male mice (SPF1, strain OF1), weighing 19-20 g each are given the product to be tested, by oral administration. One hour afterwards, each mouse is injected intraperitoneally with 0.3 cm^3 of an 0.02% strength phenylbenzoquinone solution and from the 5th to the 10th minute after this latter treatment, the number of pain reactions (abdominal contortions) is counted. The table which follows gives the percentage inhibition of these reactions.

SMILES: CCC1Cc2cc(C(C)C(=O)O)sc2C1 (stereo not shown) [23 & 27]
- inhibition in vivo at 16 mg/kg [1]: 30%
- inhibition in vivo at 64 mg/kg ([1]; 64 mg/kg oral administration): 67%
- inhibition in vivo at 128 mg/kg [1]: 66%
- inhibition in vivo at 256 mg/kg [1]: 56%
- inhibition in vivo at 8 mg/kg [2]: 7%
- inhibition in vivo at 16 mg/kg [2]: 35%
- inhibition in vivo at 32 mg/kg [2]: 79%
- inhibition in vivo at 64 mg/kg [2]: 98%

SMILES: CC(C(=O)O)c1cc2c(s1)CC(C(C)C)C2 (stereo not shown) [24 & 28]
- inhibition in vivo at 4 mg/kg [1]: 0%
- inhibition in vivo at 16 mg/kg [1]: 32%
- inhibition in vivo at 64 mg/kg ([1]; 64 mg/kg oral administration): 63%
- inhibition in vivo at 128 mg/kg [1]: 59%
- inhibition in vivo at 256 mg/kg [1]: 46%
- inhibition in vivo at 4 mg/kg [2]: 0%
- inhibition in vivo at 8 mg/kg [2]: 35%
- inhibition in vivo at 16 mg/kg [2]: 66%
- inhibition in vivo at 32 mg/kg [2]: 89%
- inhibition in vivo at 64 mg/kg [2]: 96%

SMILES: CCC1Cc2cc(CC(=O)O)sc2C1 (stereo not shown) [Example 17, (5-Ethyl-4,5-dihydro-6H-cyclopenta[b]thienyl-2)-acetic acid]
- inhibition in vivo at 4 mg/kg [1]: 17%
- inhibition in vivo at 16 mg/kg [1]: 24%
- inhibition in vivo at 64 mg/kg ([1]; 64 mg/kg oral administration): 55%
- inhibition in vivo at 128 mg/kg [1]: 52%
- inhibition in vivo at 256 mg/kg [1]: 66%
- inhibition in vivo at 16 mg/kg [2]: 17%
- inhibition in vivo at 32 mg/kg [2]: 58%
- inhibition in vivo at 64 mg/kg [2]: 63%

SMILES: CC(C)C1Cc2cc(CC(=O)O)sc2C1 (stereo not shown) [Example 18, (5-Isopropyl-4,5-dihydro-6H-cyclopenta[b]thienyl-2)-acetic acid]
- inhibition in vivo at 4 mg/kg [1]: 0%
- inhibition in vivo at 16 mg/kg [1]: 0%
- inhibition in vivo at 64 mg/kg ([1]; 64 mg/kg oral administration): 31%
- inhibition in vivo at 128 mg/kg [1]: 47%
- inhibition in vivo at 256 mg/kg [1]: 57%
- inhibition in vivo at 16 mg/kg [2]: 4%
- inhibition in vivo at 32 mg/kg [2]: 27%
- inhibition in vivo at 64 mg/kg [2]: 61%

SMILES: CCC1Cc2cc(C(C)C(=O)OCCN3CCOCC3)sc2C1 (stereo not drawn) [Example 30, Hydrochloride of the morpholinoethyl ester of α-methyl(5-ethyl-4,5-dihydro-6H-cyclopenta[b]thienyl-2)-acetic acid]
- inhibition in vivo at 4 mg/kg [1]: 18%
- inhibition in vivo at 16 mg/kg [1]: 38%
- inhibition in vivo at 64 mg/kg ([1]; 64 mg/kg oral administration): 53%
- inhibition in vivo at 128 mg/kg [1]: 67%
- inhibition in vivo at 256 mg/kg [1]: 79%
- inhibition in vivo at 8 mg/kg [2]: 9%
- inhibition in vivo at 16 mg/kg [2]: 6%
- inhibition in vivo at 32 mg/kg [2]: 85%
- inhibition in vivo at 64 mg/kg [2]: 93%

SMILES: CCC1Cc2cc(CC(=O)OCCN3CCOCC3)sc2C1 (stereo not shown) [Example 32, Hydrochloride of the morpholinoethyl ester of (5-ethyl-4.5-dihydro-6H-cyclopenta[b]thienyl-2)-acetic acid]
- inhibition in vivo at 4 mg/kg [1]: 0%
- inhibition in vivo at 16 mg/kg [1]: 16%
- inhibition in vivo at 64 mg/kg ([1]; 64 mg/kg oral administration): 20%
- inhibition in vivo at 128 mg/kg [1]: 51%
- inhibition in vivo at 256 mg/kg [1]: 53%
- inhibition in vivo at 16 mg/kg [2]: 25%
- inhibition in vivo at 32 mg/kg [2]: 48%
- inhibition in vivo at 64 mg/kg [2]: 53%

SMILES: CCC1Cc2cc(CC(=O)OCCN(C)C)sc2C1 (stereo not shown) [Example 33, Hydrochloride of the dimethylaminoethyl ester of (5-ethyl-4,5-dihydro-6H-cyclopenta[b]thienyl-2)-acetic acid]
- inhibition in vivo at 4 mg/kg [1]: 2%
- inhibition in vivo at 16 mg/kg [1]: 17%
- inhibition in vivo at 64 mg/kg ([1]; 64 mg/kg oral administration): 55%
- inhibition in vivo at 128 mg/kg [1]: 54%
- inhibition in vivo at 256 mg/kg [1]: 52%
- inhibition in vivo at 16 mg/kg [2]: 37%
- inhibition in vivo at 64 mg/kg [2]: 17%
- inhibition in vivo at 256 mg/kg [2]: 95%

SMILES: CCC1Cc2cc(C(C)C(=O)OCCN(C)C)sc2C1 (stereo not drawn) [Example 34, Hydrochloride of the dimethylaminoethyl ester of α-methyl-(5-ethyl-4,5-dihydro-6H-cyclopenta[b]thienyl-2)-acetic acid]
- inhibition in vivo at 4 mg/kg [1]: 3%
- inhibition in vivo at 16 mg/kg [1]: 12%
- inhibition in vivo at 64 mg/kg ([1]; 64 mg/kg oral administration): 45%
- inhibition in vivo at 128 mg/kg [1]: 64%
- inhibition in vivo at 256 mg/kg [1]: 82%
- inhibition in vivo at 4 mg/kg [2]: 21%
- inhibition in vivo at 8 mg/kg [2]: 46%
- inhibition in vivo at 16 mg/kg [2]: 74%
- inhibition in vivo at 32 mg/kg [2]: 95%

SMILES: CC(C(=O)OCCN1CCOCC1)c1cc2c(s1)CC(C(C)C)C2 (stereo not drawn) [Example 36, Hydrochloride of the morpholinoethyl ester of α-methyl-(5-isopropyl-4,5-dihydro-6H-cyclopenta[b]thienyl-2)-acetic acid]
- inhibition in vivo at 4 mg/kg [1]: 29%
- inhibition in vivo at 16 mg/kg [1]: 30%
- inhibition in vivo at 64 mg/kg ([1]; 64 mg/kg oral administration): 62%
- inhibition in vivo at 128 mg/kg [1]: 56%
- inhibition in vivo at 256 mg/kg [1]: 66%
- inhibition in vivo at 8 mg/kg [2]: 23%
- inhibition in vivo at 16 mg/kg [2]: 80%
- inhibition in vivo at 32 mg/kg [2]: 84%

SMILES: CC(C(=O)OCCN(C)C)c1cc2c(s1)CC(C(C)C)C2 (stereo not shown) [Example 37]
- % of inhibition (reduction of swelling) ([1]; 64 mg/kg oral administration): 45Z
- inhibition in vivo at 4 mg/kg [1]: 5%
- inhibition in vivo at 16 mg/kg [1]: 35%
- inhibition in vivo at 128 mg/kg [1]: 63%
- inhibition in vivo at 256 mg/kg [1]: 58%
- inhibition in vivo at 4 mg/kg [2]: 10%
- inhibition in vivo at 8 mg/kg [2]: 53%
- inhibition in vivo at 16 mg/kg [2]: 42%
- inhibition in vivo at 32 mg/kg [2]: 80%

SMILES: CC(C)C1Cc2cc(CC(=O)OCCN3CCOCC3)sc2C1 (stereo not shown) [Example 39, Hydrochloride of the morpholinoethyl ester of (5-isopropyl-4,5-dihydro-6H-cyclopenta[b]thienyl-2)-acetic acid]
- inhibition in vivo at 4 mg/kg [1]: 7%
- inhibition in vivo at 16 mg/kg [1]: 23%
- inhibition in vivo at 64 mg/kg ([1]; 64 mg/kg oral administration): 20%
- inhibition in vivo at 128 mg/kg [1]: 53%
- inhibition in vivo at 256 mg/kg [1]: 56%
- inhibition in vivo at 64 mg/kg [2]: 12%
- inhibition in vivo at 256 mg/kg [2]: 53%

SMILES: CC(C)C1Cc2cc(CC(=O)OCCN(C)C)sc2C1 (stereo not shown) [Example 40, Hydrochloride of the dimethylaminoethyl ester of (5-isopropyl-4,5-dihydro-6H-cyclopenta[b]thienyl-2)-acetic acid]
- inhibition in vivo at 4 mg/kg [1]: 8%
- inhibition in vivo at 16 mg/kg [1]: 7%
- inhibition in vivo at 64 mg/kg ([1]; 64 mg/kg oral administration): 13%
- inhibition in vivo at 128 mg/kg [1]: 22%
- inhibition in vivo at 256 mg/kg [1]: 32%
- inhibition in vivo at 16 mg/kg [2]: 0%
- inhibition in vivo at 64 mg/kg [2]: 31%
- inhibition in vivo at 256 mg/kg [2]: 88%
